From PMC9289467, “A Novel Multifunctional 5,6-Dimethoxy-Indanone-Chalcone-Carbamate Hybrids Alleviates Cognitive Decline in Alzheimer’s Disease by Dual Inhibition of Acetylcholinesterase and Inflammation” (Frontiers in Aging Neuroscience, 2022) come the findings set out here.

The subject of one assay is synaptophysin, PSD95. Description: Synaptophysin and PSD95 co-immunofluorescence and western blot, hippocampus. The assay is classed as in vivo, APP/PS1 mice. As to the method: (§1) APP/PS1 mice of ages 6 months were randomly divided into vehicle (APP/PS1, n = 10) and treatment groups (AP5, n = 10), which were intragastrically administered with AP5 (40 mg/kg) once daily for consecutive 5 months. AP5 was dissolved in distilled water containing 1% sodium carboxymethyl cellulose.
The fixed hemibrains were paraffin-embedded and sectioned in the coronal plane. The slices were deparaffinized with xylene and rehydrated by a series of gradient alcohols. Antigen retrieval through microwave boiling was performed with 10 mM sodium citrate solution at pH 6.0. The slices were cooled down to room temperature and then rinsed in PBS solution. […]
Frozen hippocampus and cortex were homogenized in pre-cooling RIPA buffer (P0013B, Beyotime) supplemented with 1 mM phenylmethanesulfonyl fluoride (PMSF) and cocktail of protease and phosphatase inhibitors. […] Densitometric analysis was performed using Quantity One software (Bio-Rad, Berkeley, CA, United States).
Briefly, for ACh assay, the reactions were started by adding 100 µL of the Amplex Red reagent, HRP, choline oxidase, AChE working solution to each microplate well containing the controls and samples. […] Assay plates were incubated at room temperature for 30 min and protected from light, followed by detecting fluorescence of resorufin (λex = 544 nm, λem = 590 nm) in a fluorescence microplate reader. […]

The subject of assay [1] is hippocampal gene expression. The assay is described as follows: Bulk RNA-seq of hippocampal tissues. The assay is classed as in vivo, APP/PS1 mice. As to the method: as §1
Hippocampal specimens from WT, APP/PS1, and AP5 mice stored in dry ice were sent to Beijing Genomics Institute (Wuhan, China), and the total RNA was extracted for RNA sequencing on BGISEQ-500 system. Moreover, the differentially expressed genes between APP/PS1 and AP5 were analyzed after RNA sequencing.

For a further assay, the system named is GFAP positive astrocytes. The assay is described as follows: GFAP immunohistochemistry, Sholl analysis of astrocytes, APP/PS1 mice. The assay is classed as in vivo. The following applies: AP5 40 mg/kg once daily 5 months. As for the experimental part: as §1
The fixed hemibrains were paraffin-embedded and sectioned in the coronal plane. The slices were deparaffinized with xylene and rehydrated by a series of gradient alcohols. Antigen retrieval through microwave boiling was performed with 10 mM sodium citrate solution at pH 6.0. The slices were cooled down to room temperature and then rinsed in PBS solution. Then the slices were incubated in 10% goat serum blocking solution for 1 h followed by primary antibodies overnight at 4°C. The next day, the slides were labeled with biotinylated or fluorescent secondary antibodies. Slices were washed three times with PBS before being mounted. Images were captured using a SpinSR10 scanner (Olympus, Tokyo, Japan). […]
After deparaffinization and antigen retrieval, the sections were incubated with 0.3% hydrogen peroxide (H2O2) to inhibit endogenous peroxidase activity for 20 min and blocked by goat serum for 30 min at37°C. Slides were subsequently incubated overnight with specific primary antibodies: anti-Iba1(1:100, ab178847, Abcam, Cambridge, UK) or anti-GFAP (1:100, bs-0199R, Bioss) at4 °C. […]

In another assay the target is T1, AChE (Mus musculus, UniProt P21836).
T1 construct: The brain samples were weighed, homogenized in PBS solution, and centrifuged; from tissue; host or cells: mouse brain (cortex and hippocampus) of APP/PS1 mice dosed with AP5
The assay is described as follows: Brain AChE activity, Amplex Red kit, APP/PS1 mice. The assay is classed as in vivo. Conditions: AP5 40 mg/kg intragastric once daily 5 months, vs APP/PS1 mice. As to the method: as §1
The brain samples were weighed, homogenized in PBS solution, and centrifuged for 20 min at 25,000 g at 4°C. Amplex® Red acetylcholinesterase/acetylcholine assay kit (A12217, Thermo Fisher Scientific) was used to detect AChE activity and ACh levels in the supernatant in accordance with the manufacturer’s instructions.
Briefly, for ACh assay, the reactions were started by adding 100 µL of the Amplex Red reagent, HRP, choline oxidase, AChE working solution to each microplate well containing the controls and samples. For AChE assay, detection cocktail solution containing ACh, Amplex Red, choline oxidase and horseradish peroxidase was added toeach well. Assay plates were incubated at room temperature for 30 min and protected from light, followed by detecting fluorescence of resorufin (λex = 544 nm, λem = 590 nm) in a fluorescence microplate reader.
After deparaffinization and antigen retrieval, the sections were incubated with 0.3% hydrogen peroxide (H2O2) to inhibit endogenous peroxidase activity for 20 min and blocked by goat serum for 30 min at37°C. […]

The target of another assay is T2, Aβ42 oligomers (Homo sapiens, UniProt P05067).
T2 construct: purchased Aladdin A118755
The assay is described as follows: Aβ42 self-oligomerization dot blot (A11 antibody). The following applies: oligomer-specific antibody A11. The assay is classed as biochemical. As for the experimental part: The formation of Aβ40 or Aβ42 oligomers was monitored by dot blot with oligomer-specific antibody. Briefly, the resulting Aβ film was dissolved in ddH2O to form a 100 μM solution, and then the oligomerization reaction ([Kayed et al., 2003]) was initiated in absence or presence of different concentrations of AP5. An aliquot (2 μL) of each solution was dripped on a nitrocellulose membrane. The membrane was blocked with 5% non-fat milk in TBS for 1 h, incubated with the anti-β amyloid (MOAB-2, NBP2-13075SS, Novus Biologicals, Colorado, United States), anti-amyloid oligomers (A11, NBP1-97930, Novus Biologicals), or anti-amyloid fibrils (OC, NBP1-97930, Novus Biologicals) antibodies overnight at 4°C. The membrane was then incubated using HRP-conjugated secondary antibodies at room temperature for 1 h and then developed with ECL.

T1 sequence (P21836 32-614): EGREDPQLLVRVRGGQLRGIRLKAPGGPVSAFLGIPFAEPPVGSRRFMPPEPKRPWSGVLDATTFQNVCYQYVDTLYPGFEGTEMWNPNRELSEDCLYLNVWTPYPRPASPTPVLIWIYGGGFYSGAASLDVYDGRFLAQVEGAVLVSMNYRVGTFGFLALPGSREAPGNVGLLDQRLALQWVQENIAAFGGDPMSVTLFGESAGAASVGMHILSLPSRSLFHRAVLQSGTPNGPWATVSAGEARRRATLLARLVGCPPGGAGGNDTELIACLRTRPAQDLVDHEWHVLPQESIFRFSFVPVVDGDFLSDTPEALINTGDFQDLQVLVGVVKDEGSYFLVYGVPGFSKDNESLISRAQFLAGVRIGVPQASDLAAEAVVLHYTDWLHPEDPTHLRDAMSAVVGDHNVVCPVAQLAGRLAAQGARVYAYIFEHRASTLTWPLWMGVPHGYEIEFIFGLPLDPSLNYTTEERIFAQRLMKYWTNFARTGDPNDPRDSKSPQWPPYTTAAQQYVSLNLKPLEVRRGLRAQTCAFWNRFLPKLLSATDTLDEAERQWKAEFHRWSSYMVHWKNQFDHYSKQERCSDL
T2 sequence (P05067 672-713 limits assumed): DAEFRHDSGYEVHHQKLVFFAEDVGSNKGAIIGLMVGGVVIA

As to `CCN(C)C(=O)Oc1cccc(/C=C2\Cc3cc(OC)c(OC)cc3C2=O)c1` [AP5, (E)-3-((5,6-dimethoxy-1-oxo-1,3-dihydro-2H-inden-2-ylidene)-methyl)phenylethyl(methyl)carbamate], the “pre-, post- and double-positive synaptic puncta (synapse damage)” value in the assay on synaptophysin, PSD95 (synaptophysin and PSD95 co-immunofluorescence, hippocampus CA3) was “markedly recovered”. In addition, the “expression levels of synaptophysin and PSD95” value in the assay with synaptophysin, PSD95 (western blot, hippocampus) was “more than that in the APP/PS1 mice”. Besides, in assay [1] (hippocampus RNA-seq), the “expression of genes linked to pan-reactive and A1 astrocytes” value is “reduced the expression of most genes”. Moreover, the “expression of signature genes of A2-specific astrocytes” value in assay [1] (hippocampus RNA-seq, among groups) is “No differences”. Further, in assay [1] (hippocampus, AP5-treated vs untreated APP/PS1 mice), the DAM gene expression result was “increase in DAM gene expression”. Further, the “reactive phenotypes of astrocytes (ramification index, sum of intersects)” value with GFAP positive astrocytes is reported as “attenuated”. Further, the “AChE activity in cortex and hippocampus” value at AChE was “decreased activity of AChE”. Further, the “levels of oligomeric Aβ42” value on Aβ42 oligomers is on record as “decreased the levels”.
